Series [1] has as its system sAPPα released from 7WD10 cells (CHO cells stably expressing APP751). In words: AlphaLISA sAPPα release assay (pilot HTS). Format: cell-based. To be noted: 5 μM, 7WD10 cells, 24 h. As for the experimental part:
(1). The pilot screen was performed using five 384 well plates. […] FDA approved oncology set was screened at 10 μM final assay concentration, while thiazole derivatives were screened at 5 μM. Seven hits from thiazole derivatives were identified using Ave+3SD rule (45) as a nominal cutoff for hit determination (FIG. 1.1 (bottom)). The hits represented a novel piperazine thiazole chemotype (FIG. 1.2).
Pilot screen of AlphaLISA sAPPα release assay. 8 μL of assay media (DMEM supplemented with 10% FBS and 1× Penicillin/Streptomycin) containing 20,000 cells were added to all wells of the assay plate, except column 1 where only media was added. Plates were incubated for 4 h at 37° C., 5% CO2, 95% RH after which 80 nL of test compounds in DMSO or DMSO alone were added to respective wells using a pin tool device (VP Scientific, San Diego). After 24 h of incubation at 37° C., 5% CO2, 95% RH, sAPPα AlphaLISA beads were added in 10 μL of buffer, equilibrated for 1 h, and AlphaLISA signal was measured using a Biotek H4 Synergy microplate reader (Biotek Inc). Three parameters were calculated on a per-plate basis: (a) the signal-to-background ratio (S/B); (b) the coefficient for variation [CV; CV=(standard deviation/mean)×100)] for all compound test wells; and (c) the Z′-factor [31]. Nominally active compounds from the pilot screen were determined using mean plus 3 times the standard deviation (Mean+3SD) was used as the cut-off.
In the absence of known pharmacological agents capable of inducing an increase of sAPPα release, we tested a small molecule (FIG. 2.4A insert, compound 1 in [2]) shown to decrease Aβ release. It was shown that decrease of Aβ release could be accompanied by the increase of soluble APPα, which has a neuroprotective effect. Compound 1 was tested using 20,000 cells/well in the range of 1.2-100 μM using 3-fold serial dilutions and 24 h incubation as an assay endpoint. Increase of sAPPα release was observed only in wells where 100 μM of compound 1 was added either with or without FBS (FIG. 2.4A). Viability of cells was also tested in the presence of 1.2-100 μM of compound 1 to ascertain that the increase of sAPPα release is not due to excessive cell death. Consistent with the above described results, cells were less viable in the absence of FBS. In the presence of 1.2-33 μM of compound 1, cells were approximately 10% less viable than untreated control either with or without FBS (FIG. 2.4B).
To evaluate the ability of the assay to identify compounds that increase the release of sAPPα a pilot screen was conducted using FDA approved oncology set (n=101) and TPIMS heterocycles library (n=700). The pilot screen was performed using five 384 well plates. […]
In general terms: Alpha assays give light when donor and acceptor beads are brought close together.

A further series has as its system human primary neurons. In words: Neurite outgrowth, Sholl analysis of dendritic intersections. Format: cell-based. The text has this: (4). The most important property of THPI-244 is its ability to increase neurite outgrowth and dendritic intersections in human primary neurons. Since both TrkA and sAPPα promote neuron growth and provide trophic support, we tested whether treatment of human primary neurons with THPI-244 induces neurite outgrowth. […] Considering an enormous potential for such an excellent results in human neurons, we did systematic analysis by also treating neurons in the presence of TrkA inhibitor to verify if the increased neurite outgrowth is mediated by TrkA receptor. Sholl analysis using ImageJ software of individual neurons (at least 30 per group) immunostained for MAP2 antibody confirmed our initial findings. […] This confirmed that THPI-244 increases TrkA protein levels which has vital role in regulating neuritic outgrowth.

A further series addresses TrkA (Homo sapiens, UniProt P04629). In words: TrkA protein level immunoblot, NT2 cells, with or without PKC inhibitor. The series is classed as cell-based. More on the design: endogenous in cells; host or cells: NT2 cells (stably expressing APP751). How it is done:
(3). THPI-244 increases TrkA receptor levels independent of protein kinase C (PKC). Next to clarify whether increased sAPPα levels depends on increased TrkA activation, NT2 cells were treated with THPI-244 with or without TrkA inhibitor (cat #GW 441756, Tocris Bioscience) at 50 nM final concentration. After 24 h, sAPPα levels were quantified from the conditioned medium by immunoblots. […] We next wanted to address whether increased TrkA protein levels by THPI-244 depends on PKC since PKC activators are well-known to induce sAPPα secretion (Etcheberringaray, R., et al., 2004, PNAS, 101, 11141-11146). NT2 cells were similarly treated with THPI-244 at 100 nM with or without PKC inhibitor (GF 109203, cat #0741, Tocris Bioscience) at 1.0 nM and TrkA protein levels were quantified by immunoblots as shown in FIG. 1.10 (right). […] Thus increased sAPPα level by THPI-244 is through upregulation of TrkA receptor independent of PKC.
(Immunoblotting shows a protein as a band on a membrane.)

A short description of series [2]: Brain levels of compound after i.p. injection (BBB passage), LC-MS. The series is classed as in vivo, mouse. How it is done:
(3). Since blood brain barrier (BBB) is the main obstacle for drug development for any CNS disorders, we first wanted to verify whether compound THPI-244 enters the brain. We followed protocols exactly as published previously from our laboratory (Hayes, C D et al., 2013, BMC Med. 26, 11.81). […] We generated a standard graph (FIG. 1.4 (middle)) to be used in the quantitation of THPI-244 in the brain after intraperitoneal (i.p.) injections at 0.2 mg/kg body weight.

Sequence of TrkA (P04629 33-796): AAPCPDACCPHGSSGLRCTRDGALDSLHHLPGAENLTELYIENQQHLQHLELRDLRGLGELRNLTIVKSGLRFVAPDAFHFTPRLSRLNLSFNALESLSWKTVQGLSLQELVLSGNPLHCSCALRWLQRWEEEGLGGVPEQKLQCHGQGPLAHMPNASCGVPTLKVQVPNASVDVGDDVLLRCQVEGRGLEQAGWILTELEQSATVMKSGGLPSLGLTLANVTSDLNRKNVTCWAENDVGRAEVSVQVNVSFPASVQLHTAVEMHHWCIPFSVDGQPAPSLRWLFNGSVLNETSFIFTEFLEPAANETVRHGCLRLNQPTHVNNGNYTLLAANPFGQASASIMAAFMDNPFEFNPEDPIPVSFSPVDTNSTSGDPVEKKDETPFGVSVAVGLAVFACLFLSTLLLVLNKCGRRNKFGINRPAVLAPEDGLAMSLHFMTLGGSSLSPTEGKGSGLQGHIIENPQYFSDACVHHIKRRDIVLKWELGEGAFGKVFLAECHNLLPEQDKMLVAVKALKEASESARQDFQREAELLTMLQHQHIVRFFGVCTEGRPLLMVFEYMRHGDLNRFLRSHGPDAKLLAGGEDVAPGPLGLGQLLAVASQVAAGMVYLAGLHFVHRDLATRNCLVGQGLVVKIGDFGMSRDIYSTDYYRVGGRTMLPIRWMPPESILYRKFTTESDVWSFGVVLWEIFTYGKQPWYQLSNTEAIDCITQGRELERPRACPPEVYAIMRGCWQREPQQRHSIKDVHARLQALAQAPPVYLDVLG

As to `O=C(Cc1ccccc1)N[C@H](CNc1nc(CN2CCN(C(=O)Cc3ccccc3)CC2)cs1)c1ccccc1` [THPI-244], in series [1], the “increase of Alpha signal (sAPPα release)” value is given as roughly 2 fold. Moreover, the “number of dendritic intersections” value is recorded as “highly significant increase” with human primary neurons (treated 2DIV to 6DIV) and “almost completely prevented the increased intersections” in the series on human primary neurons (with TrkA inhibitor, 2DIV to 6DIV). The TrkA protein level on TrkA (THPI-244 100 nM) is 197%; at TrkA (THPI-244 100 nM plus PKC inhibitor GF 109203 1.0 nM) it was 192%. For the same compound, the “time to maximum level in brain” value in series [2] (0.2 mg/kg i.p., mouse) is recorded as no more than 5 min. Besides, the “amount remaining in brain” value in series [2] (240 min after 0.2 mg/kg i.p.) was “negligible amount”.

The values above are taken from US9994536B2, “Compounds and methods of treating neurological disorders” (TORREY PINES INSTITUTE FOR MOLECULAR STUDIES, priority 2014, dated 2018).
